Measured values taken from BindingDB's records for doi:10.1021/jm00172a005 (Kissei Pharmaceutical, 1990).

What was measured:
[1] = target: Chymotrypsinogen A (Bos taurus) (UniProt P00766); assay: Tested for inhibition of Chymotrypsinogen from bovine
[2] = target: Chymotrypsinogen A (Bos taurus) (UniProt P00766); assay: as above; remark: listed apart in the source

Row | Compound | IC50 [1] | IC50 [2]
1 | CC(C)CC(=O)N[C@H](C(=O)N[C@H](C(=O)N[C@@H](CC(C)C)[C@@H](O)CC(=O)N[C@@H](C)C(=O)N[C@@H](CC(C)C)[C@@H](O)CC(=O)O)C(C)C)C(C)C [PEPSTATIN] | > 100 µM | –
2 | CC(C)OC(=O)[C@H](O)[C@H](CC1CCCCC1)NC(=O)[C@H](Cc1c[nH]cn1)NC(=O)[C@@H](CC(=O)N1CCOCC1)Cc1cccc2ccccc12 [4-Cyclohexyl-2-hydroxy-3-[3-(1H-imidazol-4-yl)-2-(4-morpholin-4-yl-2-naphthalen-1-ylmethyl-4-oxo-butyrylamino)-propionylamino]-butyric acid isopropyl ester] | – | > 100 µM
